Key:
[1] = system: ionotropic excitatory aminoacid receptors; conditions: preferentially at glycine co-agonist site of the NMDA receptor; cited from earlier work
CNS = conditions: cited from earlier work
kynurenine-3-hydroxylase [2] = target: T1, kynurenine-3-hydroxylase (Rattus norvegicus, UniProt O88867); test: Kynurenine-3-hydroxylase Assay in the Rat Brain; assay type: biochemical; parameters: from tissue; conditions: rat brain homogenate, 50 μM L-kynurenine, 60 min incubation, pH 7.5; read-out: Enzyme Inhibition (Brain) IC50
T1 sequence (O88867 whole entry): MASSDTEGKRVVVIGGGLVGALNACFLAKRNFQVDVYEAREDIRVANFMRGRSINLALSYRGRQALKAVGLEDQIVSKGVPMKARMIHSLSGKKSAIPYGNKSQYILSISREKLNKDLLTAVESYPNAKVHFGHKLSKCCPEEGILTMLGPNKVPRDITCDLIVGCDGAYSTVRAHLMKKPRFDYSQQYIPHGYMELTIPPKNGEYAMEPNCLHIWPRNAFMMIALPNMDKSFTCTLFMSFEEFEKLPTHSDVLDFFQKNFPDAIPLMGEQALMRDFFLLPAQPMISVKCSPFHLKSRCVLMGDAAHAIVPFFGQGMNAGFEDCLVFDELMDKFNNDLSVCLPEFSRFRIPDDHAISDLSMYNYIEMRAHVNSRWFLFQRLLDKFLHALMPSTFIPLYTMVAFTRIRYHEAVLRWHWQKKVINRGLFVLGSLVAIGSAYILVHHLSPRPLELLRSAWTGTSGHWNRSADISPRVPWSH
Experimental: Kynurenine-3-hydroxylase Assay in the Rat Brain
Brain was homogenized in ice-cold 0.32 M sucrose and centrifuged at 12000×g for 30 min at 4° C. The pellet was washed three times with 0.32 M sucrose by centrifugation and suspended in 0.14 M KCl in 20 mM K-phosphate buffer at pH 7 (1 g tissue in 2 ml buffer).
The reaction mixture contained: 75 μl of suspended homogenate; 100 μl of substrate solution containing 50 mM K-phosphate buffer pH 7.5, 2 mM MgCl2, 0.4 mM NADPH, 50 μM L-kynurenine (final concentration), and 25 μl of different concentrations of inhibitor solutions. The reaction was stopped by addition of 200 μl of 1 M HClO4 after 60 min incubation. L-3-hydroxykynurenine formed was quantified by HPLC with coulometric detection at a working voltage of +0.2 V. The column was a 10 cm C18 reversed phase (3 μm. The mobile phase consisted of 950 ml distilled water, 20 ml acetonitrile, 9 ml triethylamine, 5.9 ml phosphoric acid, 100 mg sodium EDTA and 1.5 g heptanesulfonic acid. The flow rate was 1 ml/min.

kynurenine-3-hydroxylase [3] = target: T1, kynurenine-3-hydroxylase; test: Kynurenine-3-hydroxylase Assay in the Rat Liver; assay type: biochemical; parameters: Rat liver mitochondrial extract was used as enzymatic preparation for this assay; from tissue; host or cells: rat liver mitochondrial extract; conditions: rat liver mitochondrial extract, 0.025 mM L-kynurenine, 37° C., 30 min, pH 8.1; read-out: Enzyme Inhibition (Liver) IC50
Experimental: Kynurenine-3-hydroxylase Assay in the Rat Liver
The assay for kynurenine 3-hydroxylase was based on the enzymatic synthesis of tritiated water during the hydroxylation reaction. Radiolabeled water was quantified following selective adsorption of the isotopic substrate and its metabolite with activated charcoal.
Rat liver mitochondrial extract was used as enzymatic preparation for this assay.
The assay for kynurenine 3-hydroxylase activity was carried out at 37° C. for a time of 30 min. The reaction mixture of a total volume of […] was constituted of […] of suspended extract, 100 mM Tris/Cl^- buffer pH 8.1, 10 mM EDTA, 100 mM KCl, 0.8 mM NADPH, 0.025 mM L-kynurenine, […] L-(3,5-^3 H)Kynurenine (10 Ci/mmol) and […] of different concentration of inhibitor solutions. After the incubation the reaction was terminated by the addition of 1 mL of 7.5% (w/v) activated charcoal, vortexed and centrifugated for 7 min.
A […] aliquot of supernatant was counted by scintillation spectroscopy in 5 ml of liquid scintillation.

neuronal cell cultures = conditions: relatively low concentrations, prolonged period of time or in combination with glutamate; cited from earlier work
[4] = system: N-methyl-D-aspartate (NMDA) receptor; conditions: cited from earlier work

SMILES	IC50 (kynurenine-3-hydroxylase [2]) [µM]	IC50 (kynurenine-3-hydroxylase [3]) [µM]	further results
O=C(O)c1cc(=O)c2ccccc2[nH]1 [KYNA, kynurenic acid]			activity at ionotropic excitatory aminoacid receptors [1]: broad spectrum antagonist; prevention of excitotoxic neuronal damage evoked by QUIN (CNS; co-injected with QUIN): able to prevent the excitotoxic neuronal damage; effect when injected in the CNS (CNS): neuroprotective agent; anticonvulsant and neuroprotective properties (CNS; several animal models): anticonvulsant and neuroprotective properties
O=C(O)/C=C/C(=O)c1ccc(Cl)c(Cl)c1 [PNU 157694, (E)-4-(3',4'-dichlorophenyl)-4-oxo-2-butenoic acid]	0.9	10.4	
O=C(O)/C=C/C(=O)c1ccc(F)c(F)c1 [PNU 157961, (E)-4-(3',4'-difluorophenyl)-4-oxo-2-butenoic acid]	1.1	21.1	
O=C(O)/C=C/C(=O)c1cccc(F)c1 [PNU 158388, (E)-4-(3'-fluorophenyl)-4-oxo-2-butenoic acid]	21.8	38.6	
O=C(O)/C=C/C(=O)c1cccc([N+](=O)[O-])c1 [PNU 158389, (E)-4-(3'-nitrophenyl)-4-oxo-2-butenoic acid]	16.6	30.4	
O=C(O)/C=C/C(=O)c1cccc(Cl)c1 [PNU 158390, (E)-4-(3'-chlorophenyl)-4-oxo-2-butenoic acid]	20.4	21.9	
COC(=O)/C(O)=C\C(=O)c1ccc(Cl)c(Cl)c1 [PNU 158775, Methyl-(E)-2-hydroxy-4-(3',4'-dichlorophenyl)-4-oxo-2-butenoate]	0.95	6.9	
O=C(O)/C(O)=C\C(=O)c1ccc(Cl)c(Cl)c1 [PNU 158776, (E)-2-hydroxy-4-(3',4'-dichlorophenyl)-4-oxo-2-butenoic acid]	0.3	1.8	
C/C(=C\C(=O)c1ccc(Cl)c(Cl)c1)C(=O)O [PNU 158785, (E)-2-methyl-4-(3',4'-dichlorophenyl)-4-oxo-2-butenoic acid]	3.4	23.5	
CC(=CC(=O)O)C(=O)c1ccc(Cl)c(Cl)c1 [PNU 161213, 3-methyl-4-(3',4'-dichlorophenyl)-4-oxo-2-butenoic acid]		26.2	
CCOC(=O)/C(O)=C\C(=O)c1ccc(Cl)c(Cl)c1 [PNU 161215, Ethyl-(E)-2-hydroxy-4-(3',4'-dichlorophenyl)-4-oxo-2-butenoate]	2.01	1.9	
O=C(O)/C(O)=C\C(=O)c1cccc(Cl)c1 [PNU 161216, (E)-2-hydroxy-4-(3'-chlorophenyl)-4-oxo-2-butenoic acid]	6.9	1.2	
O=C(O)/C(O)=C\C(=O)c1cccc(F)c1 [PNU 161217, (E)-2-hydroxy-4-(3'-fluorophenyl)-4-oxo-2-butenoic acid]	0.97	2.8	
O=C(O)/C(O)=C\C(=O)c1ccc(F)c(F)c1 [PNU 161219, (E)-2-hydroxy-4-(3',4'-difluorophenyl)-4-oxo-2-butenoic acid]	0.44	1.2	
O=C(O)/C(O)=C\C(=O)c1ccc(Cl)cc1 [PNU 166909, (E)-2-hydroxy-4-(4'-chlorophenyl)-4-oxo-2-butenoic acid]		8.9	
O=C(O)C=C(Cc1ccccc1)C(=O)c1ccc(Cl)c(Cl)c1 [PNU 167535, 3-benzyl-4-(3',4'-dichlorophenyl)-4-oxo-2-butenoic acid]		12.3	
O=C(O)c1cccnc1C(=O)O [QUIN, quinolinic acid]			in vivo convulsions and lesions (CNS; in vivo): produce convulsions and axon sparing lesions; effect when injected in the CNS (CNS): neurotoxin; neurotoxicity in neuronal cell cultures (neuronal cell cultures): neurotoxic; activity at NMDA receptor [4]: highly selective agonist
